In ChEMBL document CHEMBL5512659, “Structure optimizing of flavonoids against both MRSA and VRE” (Eur J Med Chem, 2024):
Converted amounts (≈) assume the structure as drawn.

Experiments:
Type in all cases: functional
Enterococcus faecalis [1] = assay: Antibacterial activity against multidrug resistant Enterococcus faecalis ATCC 51299
Staphylococcus aureus [2] = assay: Antibacterial activity against methicillin resistant Staphylococcus aureus clinical isolate 003
Enterococcus faecalis [3] = assay: Antibacterial activity against Enterococcus faecalis clinical isolate 7
Staphylococcus aureus [4] = assay: Antibacterial activity against Staphylococcus aureus clinical isolate 29
Enterococcus faecalis [5] = assay: Antibacterial activity against Enterococcus faecalis clinical isolate 13
Staphylococcus aureus [6] = assay: Antibacterial activity against methicillin resistant Staphylococcus aureus clinical isolate 011
Staphylococcus aureus [7] = assay: Antibacterial activity against methicillin resistant Staphylococcus aureus clinical isolate 031
Staphylococcus aureus [8] = assay: Antibacterial activity against Staphylococcus aureus clinical isolate 31

SMILES | MIC (Enterococcus faecalis [1]) [µg/mL] | MIC (Staphylococcus aureus [2]) [µg/mL] | MIC (Enterococcus faecalis [3]) [µg/mL] | MIC (Staphylococcus aureus [4]) [µg/mL] | MIC (Enterococcus faecalis [5]) [µg/mL] | MIC (Staphylococcus aureus [6]) [µg/mL] | MIC (Staphylococcus aureus [7]) [µg/mL] | MIC (Staphylococcus aureus [8]) [µg/mL]
COc1ccc(-c2oc3cc(OC)cc(OC)c3c(=O)c2CCC/C=C(\C)CCC=C(C)C)c(OC)c1 | > 64 | > 64 | – | – | – | – | – | –
CCCCCCc1c(-c2ccc(OCCCCN3CCCC(C)C3)cc2OCCCCN2CCCC(C)C2)oc2cc(OC)cc(O)c2c1=O (centres undefined) | 2 (≈ 2.89 µM) | 1 (≈ 1.45 µM) | 2 (≈ 2.89 µM) | 2 (≈ 2.89 µM) | 2 (≈ 2.89 µM) | 2 (≈ 2.89 µM) | 2 (≈ 2.89 µM) | 2 (≈ 2.89 µM)
CCCCCCCCCCCCCCCCc1c(-c2ccc(O)cc2O)oc2cc(OC)cc(O)c2c1=O | 64 (≈ 122 µM) | 32 (≈ 61 µM) | – | – | – | – | – | –
CCCCCCCCc1c(-c2ccc(O)cc2O)oc2cc(OC)cc(O)c2c1=O | 16 (≈ 38.8 µM) | 8 (≈ 19.4 µM) | – | – | – | – | – | –
CCCCc1c(-c2ccc(O)cc2O)oc2cc(O)cc(O)c2c1=O | 32 (≈ 93.5 µM) | 32 (≈ 93.5 µM) | – | – | – | – | – | –
CCCCCCc1c(-c2ccc(OCCCCNCc3ccc(C(F)(F)F)cc3)cc2OCCCCNCc2ccc(C(F)(F)F)cc2)oc2cc(OC)cc(O)c2c1=O | 16 (≈ 19 µM) | 16 (≈ 19 µM) | 32 (≈ 38 µM) | 16 (≈ 19 µM) | 8 (≈ 9.49 µM) | 8 (≈ 9.49 µM) | 8 (≈ 9.49 µM) | 8 (≈ 9.49 µM)
CC(C)=CCc1c(-c2ccc(O)cc2O)oc2c([C@H]3C=C(C)C[C@@H](c4ccc(O)cc4O)[C@@H]3C(=O)c3ccc(O)cc3O)c(O)cc(O)c2c1=O [KUMANON G] | 5 (≈ 7.22 µM) | 5 (≈ 7.22 µM) | – | – | – | – | – | –
CCc1c(-c2ccc(OC)cc2OC)oc2cc(OC)cc(OC)c2c1=O | > 64 | > 64 | – | – | – | – | – | –
CCCCCCCCCCc1c(-c2ccc(O)cc2O)oc2cc(OC)cc(O)c2c1=O | 16 (≈ 36.3 µM) | 16 (≈ 36.3 µM) | – | – | – | – | – | –
COc1cc(O)c2c(=O)cc(-c3ccc(O)cc3O)oc2c1 [ARTOCARPETIN] | > 64 | > 64 | – | – | – | – | – | –
CCCCCCCCCCCCc1c(-c2ccc(O)cc2O)oc2cc(O)cc(O)c2c1=O | 64 (≈ 141 µM) | 32 (≈ 70.4 µM) | – | – | – | – | – | –
CCCCCCc1c(-c2ccc(OCCN(C)C)cc2OCCN(C)C)oc2cc(OC)cc(O)c2c1=O | 4 (≈ 7.59 µM) | 1 (≈ 1.9 µM) | 4 (≈ 7.59 µM) | 1 (≈ 1.9 µM) | 2 (≈ 3.8 µM) | 2 (≈ 3.8 µM) | 4 (≈ 7.59 µM) | 2 (≈ 3.8 µM)
CCCCCCc1c(-c2ccc(OCCCCNCCC)cc2OCCCCNCCC)oc2cc(OC)cc(O)c2c1=O | 2 (≈ 3.27 µM) | 2 (≈ 3.27 µM) | 2 (≈ 3.27 µM) | 2 (≈ 3.27 µM) | 2 (≈ 3.27 µM) | 2 (≈ 3.27 µM) | 2 (≈ 3.27 µM) | 2 (≈ 3.27 µM)
CC(C)=CCc1c(O)ccc(C(=O)[C@@H]2[C@@H](c3ccc(O)cc3O)CC(C)=C[C@H]2c2c(O)cc(O)c3c(=O)c(CC=C(C)C)c(-c4ccc(O)cc4O)oc23)c1O | 5 (≈ 6.57 µM) | 2.5 (≈ 3.29 µM) | – | – | – | – | – | –
CCCCCCc1c(-c2ccc(OCCCCNCc3ccco3)cc2OCCCCNCc2ccco2)oc2cc(OC)cc(O)c2c1=O | 4 (≈ 5.82 µM) | 2 (≈ 2.91 µM) | 4 (≈ 5.82 µM) | 2 (≈ 2.91 µM) | 2 (≈ 2.91 µM) | 2 (≈ 2.91 µM) | 4 (≈ 5.82 µM) | 4 (≈ 5.82 µM)
CCCCCCc1c(-c2ccc(OCCCCNC3CCCCC3)cc2OCCCCNC2CCCCC2)oc2cc(OC)cc(O)c2c1=O | 2 (≈ 2.89 µM) | 1 (≈ 1.45 µM) | 1 (≈ 1.45 µM) | 1 (≈ 1.45 µM) | 1 (≈ 1.45 µM) | 2 (≈ 2.89 µM) | 4 (≈ 5.79 µM) | 2 (≈ 2.89 µM)
O=c1cc(-c2ccc(O)cc2O)oc2cc(O)cc(O)c12 [NORARTOCARPETIN] | > 64 | > 64 | – | – | – | – | – | –
CCCCCCCCCCCCc1c(-c2ccc(O)cc2O)oc2cc(OC)cc(O)c2c1=O | 32 (≈ 68.3 µM) | 16 (≈ 34.1 µM) | – | – | – | – | – | –
COc1cc(O)c2c(=O)c(CCCCc3ccccc3)c(-c3ccc(O)cc3O)oc2c1 | 16 (≈ 37 µM) | 8 (≈ 18.5 µM) | – | – | – | – | – | –
CCCCCc1c(-c2ccc(O)cc2O)oc2cc(O)cc(O)c2c1=O | 16 (≈ 44.9 µM) | 16 (≈ 44.9 µM) | – | – | – | – | – | –
CC(C)=CCc1c(-c2ccc(O)cc2O)oc2c(CC=C(C)C)c(O)cc(O)c2c1=O [KUWANON C] | 10 (≈ 23.7 µM) | 5 (≈ 11.8 µM) | – | – | – | – | – | –
CCCCCCc1c(-c2ccc(OCCCCNCc3ccc(Cl)cc3)cc2OCCCCNCc2ccc(Cl)cc2)oc2cc(OC)cc(O)c2c1=O | 32 (≈ 41.2 µM) | 32 (≈ 41.2 µM) | 32 (≈ 41.2 µM) | 32 (≈ 41.2 µM) | 32 (≈ 41.2 µM) | 16 (≈ 20.6 µM) | 32 (≈ 41.2 µM) | 16 (≈ 20.6 µM)
CCCCCCc1c(-c2ccc(OCCCCN(CCC)CCC)cc2OCCCCN(CCC)CCC)oc2cc(OC)cc(O)c2c1=O | 16 (≈ 23 µM) | 8 (≈ 11.5 µM) | 16 (≈ 23 µM) | 16 (≈ 23 µM) | 16 (≈ 23 µM) | 8 (≈ 11.5 µM) | 16 (≈ 23 µM) | 8 (≈ 11.5 µM)
CCCCCCCCCCc1c(-c2ccc(O)cc2O)oc2cc(O)cc(O)c2c1=O | 32 (≈ 75 µM) | 16 (≈ 37.5 µM) | – | – | – | – | – | –
COc1ccc(-c2cc(=O)c3c(OC)cc(OC)cc3o2)c(OC)c1 | > 64 | > 64 | – | – | – | – | – | –
CCCCCCc1c(-c2ccc(O)cc2O)oc2cc(O)cc(O)c2c1=O | 16 (≈ 43.2 µM) | 8 (≈ 21.6 µM) | – | – | – | – | – | –
CC(C)=CCC/C(C)=C/CCCc1c(-c2ccc(O)cc2O)oc2cc(O)cc(O)c2c1=O | > 64 | 32 (≈ 71 µM) | – | – | – | – | – | –
C=CCc1c(-c2ccc(OC)cc2OC)oc2cc(OC)cc(OC)c2c1=O | > 64 | > 64 | – | – | – | – | – | –
CC(C)=CCc1c(-c2ccc(O)cc2O)oc2c3c(cc(O)c2c1=O)OC(C)(C)C=C3 [MORUSIN] | 5 (≈ 11.9 µM) | 5 (≈ 11.9 µM) | – | – | – | – | – | –
CCCCCCc1c(-c2ccc(OCCCCNCCc3ccccc3)cc2OCCCCNCCc2ccccc2)oc2cc(OC)cc(O)c2c1=O | 4 (≈ 5.44 µM) | 4 (≈ 5.44 µM) | 8 (≈ 10.9 µM) | 8 (≈ 10.9 µM) | 4 (≈ 5.44 µM) | 4 (≈ 5.44 µM) | 4 (≈ 5.44 µM) | 4 (≈ 5.44 µM)
